Measured values from ChEMBL document CHEMBL2073996, “Increased bioavailability of the food-derived carcinogen 2-amino-1-methyl-6-phenylimidazo[4,5-b]pyridine in MRP2-deficient rats” (Mol Pharmacol, 2001).

Molecular target: ATP-binding cassette sub-family C member 2 (Homo sapiens, UniProt Q92887)
Test: TP_TRANSPORTER: transepithelial transport (basal to apical) in MRP2-expressing MDCKII cells
Format: functional, cell-based
Details: dog, mdck-ii

ATP-binding cassette sub-family C member 2, sequence (Q92887 whole entry): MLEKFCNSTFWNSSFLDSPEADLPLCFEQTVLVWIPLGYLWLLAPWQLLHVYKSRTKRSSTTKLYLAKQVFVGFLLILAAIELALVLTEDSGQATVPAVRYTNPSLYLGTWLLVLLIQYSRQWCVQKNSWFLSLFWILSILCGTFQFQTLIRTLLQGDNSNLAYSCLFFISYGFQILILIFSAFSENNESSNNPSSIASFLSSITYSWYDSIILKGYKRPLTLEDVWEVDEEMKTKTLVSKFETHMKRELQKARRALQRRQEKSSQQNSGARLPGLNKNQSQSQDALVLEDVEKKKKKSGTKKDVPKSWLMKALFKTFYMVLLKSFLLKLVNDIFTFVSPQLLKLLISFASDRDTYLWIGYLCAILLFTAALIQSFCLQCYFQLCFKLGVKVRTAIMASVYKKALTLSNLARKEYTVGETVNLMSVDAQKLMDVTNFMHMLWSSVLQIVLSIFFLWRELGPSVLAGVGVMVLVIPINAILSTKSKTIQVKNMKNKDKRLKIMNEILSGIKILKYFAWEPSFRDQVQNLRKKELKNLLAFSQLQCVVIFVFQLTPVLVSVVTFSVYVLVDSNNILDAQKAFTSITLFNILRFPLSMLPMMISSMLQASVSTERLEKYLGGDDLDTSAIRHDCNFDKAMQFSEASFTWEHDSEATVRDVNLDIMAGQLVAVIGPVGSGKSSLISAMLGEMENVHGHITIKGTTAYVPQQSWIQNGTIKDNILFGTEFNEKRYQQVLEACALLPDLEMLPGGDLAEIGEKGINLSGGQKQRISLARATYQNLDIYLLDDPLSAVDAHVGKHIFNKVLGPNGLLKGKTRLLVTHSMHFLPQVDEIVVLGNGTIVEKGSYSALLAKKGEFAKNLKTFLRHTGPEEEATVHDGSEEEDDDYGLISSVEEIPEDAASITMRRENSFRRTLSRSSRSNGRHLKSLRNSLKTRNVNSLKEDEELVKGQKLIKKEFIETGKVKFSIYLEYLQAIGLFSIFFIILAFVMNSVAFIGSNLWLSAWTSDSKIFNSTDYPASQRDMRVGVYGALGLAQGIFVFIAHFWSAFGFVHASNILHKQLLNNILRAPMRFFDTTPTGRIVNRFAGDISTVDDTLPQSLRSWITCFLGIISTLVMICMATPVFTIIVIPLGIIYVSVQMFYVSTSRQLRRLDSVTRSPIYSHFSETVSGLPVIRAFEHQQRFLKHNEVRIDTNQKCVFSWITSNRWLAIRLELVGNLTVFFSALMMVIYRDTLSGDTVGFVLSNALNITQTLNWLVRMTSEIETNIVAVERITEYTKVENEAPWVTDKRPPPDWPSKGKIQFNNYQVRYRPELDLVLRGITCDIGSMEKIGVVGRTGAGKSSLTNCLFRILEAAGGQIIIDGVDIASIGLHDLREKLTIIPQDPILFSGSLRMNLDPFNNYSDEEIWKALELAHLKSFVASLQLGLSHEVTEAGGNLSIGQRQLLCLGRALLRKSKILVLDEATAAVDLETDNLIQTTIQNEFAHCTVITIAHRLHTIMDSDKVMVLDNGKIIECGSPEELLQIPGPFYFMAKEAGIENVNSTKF

Cn1c(N)nc2ncc(-c3ccccc3)cc21 [2-AMINO-1-METHYL-6- PHENYLIMIDAZO[4,5- B]PYRIDINE]
Activity: substrate [+]
